Source: patent US7214676B2, “Spirotricyclic derivatives and their use as phosphodiesterase-7 inhibitors” (Warner-Lambert Company LLC, priority 2001, dated 2007)

The compounds below were run against T1, PDE7A1 (Homo sapiens, UniProt Q13946) (assay: In vitro inhibition of phosphodiesterase 7). Details: substrate cAMP 50 nM, reaction stopped after 10 minutes; read-out: IC50 PDE7.
T1 construct: made in house; host or cells: Sf21 insect cells, baculovirus expression system
Assay type: biochemical
Experimental: The capacity of the compounds of the invention to inhibit cyclic nucleotide phosphodiesterases was evaluated by measuring their IC50 (concentration necessary to inhibit the enzymatic activity by 50%).
PDE3A3, PDE4D3, PDE7A1 were cloned and expressed in insect cells Sf21 using the baculovirus expression system and we uses directly the cell culture supernatant as enzyme source. The source of PDE1 and of PDE5 were human cell lines (respectively TPH1 human monocytes and MCF7 human breast adenocarcinoma).
They were obtained partially purified on an anion exchange column (Mono Q) according to a method adapted from Lavan B. E., Lakey T., Houslay M. D. Biochemical pharmacology, 1989, 38 (22), 4123–4136.
Measurement of the enzymatic activity for the various types of PDE was then made according to a method adapted from W. J. Thompson et al. 1979, Advances in Cyclic Nucleotide Research, Vol. 10: 69–92, ed. G. Brooker et al. Raven Press, NY.
The substrate used was cGMP for PDE1 and PDE5 and cAMP for PDE 3, PDE 4 and PDE 7. The substrate concentration was 0.2 μM for PDE 1, PDE 3 and PDE 5, 0,25 μM for PDE 4 and 50 nM for PDE 7.
The enzymatic reaction was stopped after 1 hour for PDE 1, PDE 3 and PDE 5 and 10 minutes for PDE 4 and PDE 7.

T1 sequence (Q13946 whole entry, species assumed): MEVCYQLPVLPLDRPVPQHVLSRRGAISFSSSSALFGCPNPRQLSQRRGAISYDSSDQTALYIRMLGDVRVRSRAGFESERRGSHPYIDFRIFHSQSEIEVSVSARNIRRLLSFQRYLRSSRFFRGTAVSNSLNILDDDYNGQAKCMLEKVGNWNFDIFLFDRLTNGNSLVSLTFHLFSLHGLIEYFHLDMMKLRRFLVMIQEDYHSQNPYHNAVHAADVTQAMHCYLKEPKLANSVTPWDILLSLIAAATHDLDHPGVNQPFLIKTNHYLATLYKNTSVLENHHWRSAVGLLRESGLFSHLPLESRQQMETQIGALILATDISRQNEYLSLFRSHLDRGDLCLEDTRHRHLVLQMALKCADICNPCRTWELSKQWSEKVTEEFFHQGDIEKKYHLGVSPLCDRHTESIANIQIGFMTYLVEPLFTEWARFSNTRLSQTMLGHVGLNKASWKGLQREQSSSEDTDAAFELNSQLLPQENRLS

`O=C1Nc2c(Cl)ccc(Cl)c2C2(CCCCC2)N1` [Example 15, 5′,8′-Dichlorospiro[cyclohexane-1-4′-3′,4′-dihydro)quinazolin]-2′(1′H)-one] and `O=C1Nc2c(Cl)cc(-c3ccccc3)cc2C2(CCCCC2)N1` [Example 26, 8′-Chloro-6′-phenylspiro[cyclohexane-1-4′-(3′,4′-dihydro)quinazolin]-2′(1′H)-one] are within 1.5-fold of each other in IC50: 0.014 µM for the first, 0.016 µM for the second.

Going from `O=C1Nc2c(Cl)cc(-c3ccc4[nH]ccc4c3)cc2C2(CCCCC2)N1` [Example 34, 8′-Chloro-6′-(1H-indol-5-yl)spiro[cyclohexane-1-4′-(3′,4′-dihydro)quinazolin]-2′(1H)-one] to `CN(C)CCCNC(=O)c1cccc(-c2cc(Cl)c3c(c2)C2(CCCCC2)NC(=O)N3)c1` [Example 41, 8′-Chloro-6′-[3-(3-N-dimethylamino-propylcarboxamide)phenyl]spiro[-cyclohexane-1-4′-(3′,4′-dihydro)quinazolin]-2′(1′H)-one], the IC50 rises from 0.012 µM to 0.02 µM (1.7-fold). The first is the more potent here.

`CN1CCN(C(=O)c2ccc(-c3cc(Cl)c4c(c3)C3(CCCCC3)NC(=O)N4)cc2)CC1` [Example 38, 8′-Chloro-6′-[4-(4-methyl-piperazine-1-carbonyl)phenyl]spiro[cyclohexane-1-4′-(3′,4′-dihydro)quinazolin]-2′(1′H)-one] and `O=C1Nc2c(Cl)cc(-c3ccc(C(=O)N4CCN(CCOCCO)CC4)cc3)cc2C2(CCCCC2)N1` [Example 54] are within 1.5-fold of each other in IC50: 0.018 µM for the first, 0.013 µM for the second.

First: O=C1Nc2c(Cl)cc(-c3ccc(C(=O)N4CCN(c5ncccn5)CC4)cc3)cc2C2(CCCCC2)N1 [Example 51, 8′-Chloro-6′-[4-(4-pyrimidin-2-yl-piperazine-1-carbonyl)phenyl]spiro[-cyclohexane-1-4′-(3′,4′-dihydro)quinazolin]-2′(1′H)-one]
Second: O=C1Nc2c(Cl)cc(-c3ccc(C(=O)N4CCN(CCN5CCOCC5)CC4)cc3)cc2C2(CCCCC2)N1 [Example 52, 8′-Chloro-6′-[4-(4-(2-morpholin-4-yl-ethyl)-piperazine-1-carbonyl)-phenyl]spiro[-cyclohexane-1-4′-(3′,4′-dihydro)quinazolin]-2′(1′H)-one]
The IC50 of the first is 1.9-fold lower: 0.008 µM for the first, 0.015 µM for the second. The first is the more potent here.

`O=C1Nc2c(Cl)cc(-c3ccc(C(=O)N4CCN(CC(=O)N5CCOCC5)CC4)cc3)cc2C2(CCCCC2)N1` [Example 53, 8′-Chloro-6′-[4-(4-(2-morpholin-4-yl-2-oxo-ethyl)-piperazine-1-carbonyl)-phenyl]spiro[-cyclohexane-1-4′-(3′,4′-dihydro)quinazolin]-2′(1′H)-one] was tested, and the IC50 was 0.013 µM.
